In paper PMC4848495, “Identification of a Potent and Broad-Spectrum Hepatitis C Virus Fusion Inhibitory Peptide from the E2 Stem Domain” (Scientific Reports, 2016):
Residues, ends and D or L forms follow the SMILES beside them.

These compounds were tested against HCV glycoprotein E1E2-mediated membrane fusion (Hepatitis C virus genotype 1a, UniProt P27958) (assay: cell-based). Settings: not given.
HCV glycoprotein E1E2-mediated membrane fusion, sequence (P27958 384-746): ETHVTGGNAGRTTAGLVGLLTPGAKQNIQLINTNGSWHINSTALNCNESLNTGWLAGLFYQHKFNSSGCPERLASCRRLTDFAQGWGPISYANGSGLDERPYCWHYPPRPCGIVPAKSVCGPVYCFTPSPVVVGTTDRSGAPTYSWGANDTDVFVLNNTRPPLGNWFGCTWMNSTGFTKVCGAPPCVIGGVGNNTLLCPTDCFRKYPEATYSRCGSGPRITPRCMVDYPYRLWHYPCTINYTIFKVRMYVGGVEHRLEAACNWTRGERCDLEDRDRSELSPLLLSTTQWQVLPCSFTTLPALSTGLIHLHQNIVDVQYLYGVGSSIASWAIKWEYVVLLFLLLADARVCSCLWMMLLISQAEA
HCV glycoprotein E1E2-mediated membrane fusion, sequence (P27958 192-383): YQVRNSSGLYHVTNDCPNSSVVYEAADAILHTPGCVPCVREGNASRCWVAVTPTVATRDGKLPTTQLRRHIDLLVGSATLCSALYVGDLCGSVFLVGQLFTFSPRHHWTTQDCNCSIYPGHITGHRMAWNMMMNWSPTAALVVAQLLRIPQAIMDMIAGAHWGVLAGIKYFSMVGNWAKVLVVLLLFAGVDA
Assay type: cell-based, Hepatitis C virus (strain H77)
With `CC[C@H](C)[C@H](NC(=O)[C@H](C)NC(=O)[C@H](Cc1c[nH]c2ccccc12)NC(=O)[C@H](CO)NC(=O)[C@H](C)NC(=O)[C@@H](NC(=O)[C@H](CO)NC(=O)[C@H](CO)NC(=O)CNC(=O)[C@@H](NC(=O)CNC(=O)[C@H](Cc1ccc(O)cc1)NC(=O)[C@H](CC(C)C)NC(=O)[C@H](Cc1ccc(O)cc1)NC(=O)[C@H](CCC(N)=O)NC(=O)[C@@H](NC(=O)[C@H](CC(=O)O)NC(=O)[C@@H](NC(=O)[C@@H](NC(=O)[C@H](CC(N)=O)NC(=O)[C@H](CCC(N)=O)NC(=O)[C@H](Cc1c[nH]cn1)NC(=O)[C@H](CC(C)C)NC(=O)[C@H](Cc1c[nH]cn1)NC(=O)[C@@H](NC(=O)[C@H](CC(C)C)NC(=O)CNC(=O)[C@@H](NC(=O)[C@H](CO)NC(=O)[C@H](CC(C)C)NC(=O)[C@H](C)NC(=O)[C@@H]1CCCN1C(=O)[C@H](CC(C)C)NC(=O)[C@@H](N)[C@@H](C)O)[C@@H](C)O)[C@@H](C)CC)[C@@H](C)CC)C(C)C)C(C)C)C(C)C)[C@@H](C)CC)C(=O)N[C@@H](CCCCN)C(=O)O` [E28] (H-TLPALSTGLIHLHQNIVDVQYLYGVGSSIASWAIK-OH; N-terminus and C-terminus assumed) the EC50 was greater than 20 µM.

Same assay, conditions: Cre/stop fusion system, peptide 1 µM, luciferase divided by solvent control (0.5% DMSO)
For “P TDCF RKHP EATY TKC GS GP W LTP RCLV HY [HCV-27, 30-mer of overlapping E1E2 peptide library]”, the “% of fusion” value was 65.1%.
“LIVMLLF AGVDGGTYVTGGTMAKNTLGI TS [HCV-13, 30-mer of overlapping E1E2 peptide library]” was tested, and the “% of fusion” value was 60.1%.
For “VTGGTM AKNTLGI TSLFSP GSSQKIQLVNT [HCV-14, 30-mer of overlapping E1E2 peptide library]”, the “% of fusion” value was 69.6%.
“AGLAYYSMVGNWAKVLIVMLLF AGVDGGTY [HCV-12, 30-mer of overlapping E1E2 peptide library]” was tested, and the “% of fusion” value was 122.8%.
For “SP TAALVVSQLLRIP QAVVDMVAGAHWGVL [HCV-10, 30-mer of overlapping E1E2 peptide library]”, the “% of fusion” value was 78.8%.
In the case of “PPCNIGGI GNKTLTCP TDCFRKHP EATYTK [HCV-26, 30-mer of overlapping E1E2 peptide library]”, the “% of fusion” value is reported as 121.6%.
With “YEVRNVSGVYHVTNDCSNAS IVYEAADMIM [HCV-1, 30-mer of overlapping peptide library covering full-length E1E2 of HCV strain H77]” the “% of fusion” value was 56.4%.
With “GAAALCSAMYV GDLC GSVFLVAQLF TFSP R [HCV-6, 30-mer of overlapping E1E2 peptide library]” the “% of fusion” value was 81.5%.
For “CSNASIVYEAADMIMHTP GC VP CVRENNSS [HCV-2, 30-mer of overlapping E1E2 peptide library]”, the “% of fusion” value was 80.8%.
“FKVRMYVGGVEHRLE AACNWTRGERCNLED [HCV-30, 30-mer of overlapping E1E2 peptide library]” was tested, and the “% of fusion” value was 99.6%.
For “IDAF AQGWGP ITYNESHSSDQRP YCWHYAP [HCV-19, 30-mer of overlapping E1E2 peptide library]”, the “% of fusion” value was 129.8%.
For “P YRLWHYP CTVNFTIFKVRMYVGGVEHRLE [HCV-29, 30-mer of overlapping E1E2 peptide library]”, the “% of fusion” value was 83.2%.
In the case of “SLNTGFLAALFYVHKFNSSGCPERMASCSP [HCV-17, 30-mer of overlapping E1E2 peptide library]”, the “% of fusion” value is reported as 66.7%.
For “RHETVQDCNCSIYP GHVTGHRMAWDMMMNW [HCV-8, 30-mer of overlapping E1E2 peptide library]”, the “% of fusion” value was 76.9%.
In the case of “QAVVDMVAGAHWGVLAGLAYYSMVGNWAKV [HCV-11, 30-mer of overlapping E1E2 peptide library]”, the “% of fusion” value is reported as 121.6%.
“RCWVALTP TLAARNASVP TTTIRRHVDLLV [HCV-4, 30-mer of overlapping E1E2 peptide library]” was tested, and the “% of fusion” value was 85.2%.
For “SVP TTTIRRHVDLLV GAAALC SAMYVGDLC [HCV-5, 30-mer of overlapping E1E2 peptide library]”, the “% of fusion” value was 84.7%.
In the case of “FNSSGCPERMASCSPIDAFAQGWGPITYNE [HCV-18, 30-mer of overlapping E1E2 peptide library]”, the “% of fusion” value is reported as 70.8%.
With “WQVLP CSFTTLP ALS TGLIHLHQNVVDVQY [HCV-33, 30-mer of overlapping E1E2 peptide library]” the “% of fusion” value was 9.7%.
With “YCFTP SPVVVGTTDRF GVP TYSWGENETDV [HCV-22, 30-mer of overlapping E1E2 peptide library]” the “% of fusion” value was 79.0%.
For “NGS WHINR TALNCNDSLNTGFLAALFYVHK [HCV-16, 30-mer of overlapping E1E2 peptide library]”, the “% of fusion” value was 64.2%.
For “LFSP GSSQKIQLVNTNGS WHI NRTALNCND [HCV-15, 30-mer of overlapping E1E2 peptide library]”, the “% of fusion” value was 56.0%.
In the case of “HVTGHRMAWDMMMNWSP TAALVVSQLLRIP [HCV-9, 30-mer of overlapping E1E2 peptide library]”, the “% of fusion” value is reported as 56.9%.
“CGS GP WLTP RCLVHYP YRLWHYP CTVNFTI [HCV-28, 30-mer of overlapping E1E2 peptide library]” was tested, and the “% of fusion” value was 82.2%.
In the case of “CTWMNSTGF TKTC GGP P CNIGGI GNKTLTC [HCV-25, 30-mer of overlapping E1E2 peptide library]”, the “% of fusion” value is reported as 87.4%.
With “LYGIGS AVVSFAIKWEYVLLLFLLLADARV [HCV-35, 30-mer of overlapping E1E2 peptide library]” the “% of fusion” value was 40.0%.
For “TGLIHLHQNVVDVQYLYGI GSAVVSFAIKW [HCV-34, 30-mer of overlapping E1E2 peptide library]”, the “% of fusion” value was 24.9%.
In the case of “RP CGIVP AAQVC GP VYCFTP SPVVVGTTDR [HCV-21, 30-mer of overlapping E1E2 peptide library]”, the “% of fusion” value is reported as 63.7%.
“GSVFLVAQLFTFSPRRHETVQDCNCSIYPG [HCV-7, 30-mer of overlapping E1E2 peptide library]” was tested, and the “% of fusion” value was 85.5%.
With “AAC NW TR GERCN LEDRDRS E LS P LLLS TTE [HCV-31, 30-mer of overlapping E1E2 peptide library]” the “% of fusion” value was 56.9%.
With “HTP GCVP CVRENNSSRCWVALTP TLAAR NA [HCV-3, 30-mer of overlapping E1E2 peptide library]” the “% of fusion” value was 64.3%.
In the case of “RDRS ELS P LLLS TTEW QV LP CS F TTLP ALS [HCV-32, 30-mer of overlapping E1E2 peptide library]”, the “% of fusion” value is reported as 11 . 2%.
In the case of “SHSSDQRP YCWHYAP RP CGI VP AAQVC GP V [HCV-20, 30-mer of overlapping E1E2 peptide library]”, the “% of fusion” value is reported as 65.8%.
“FGVP TYSWGENE TDVLLLNNTRPP QGNWFG [HCV-23, 30-mer of overlapping E1E2 peptide library]” was tested, and the “% of fusion” value was 145.0%.
For “EYVLLLFLLLADARVCACLWMMLLIAQAEA [HCV-36, 30-mer of overlapping E1E2 peptide library]”, the “% of fusion” value was 10.7%.

What follows are compounds tested on HCVcc (Jc1-luc) (assay: not given). Settings: Huh7.5.1 cells, various concentration ratios, CalcuSyn.
With `CCC[C@H](NC(=O)[C@@H]1[C@H]2CCC[C@H]2CN1C(=O)[C@@H](NC(=O)[C@@H](NC(=O)c1cnccn1)C1CCCCC1)C(C)(C)C)C(=O)C(=O)NC1CC1` [Telaprevir] the “effect on inhibition of HCV infection in combination with E27” value (“effect on inhibition of HCV infection” below) was “slightly synergistic trend”.
In the case of `NC(=O)c1ncn([C@@H]2O[C@H](CO)[C@@H](O)[C@H]2O)n1` [Ribavirin], the “effect on inhibition of HCV infection” value is reported as “slightly synergistic trend”.
For `CC(C)OC(=O)[C@H](C)N[P@](=O)(OC[C@H]1O[C@@H](n2ccc(=O)[nH]c2=O)[C@](C)(F)[C@@H]1O)Oc1ccccc1` [Sofosbuvir], the “effect on inhibition of HCV infection” value was “slight antagonism”.
`COc1ccc2c(O[C@@H]3C[C@H]4C(=O)N[C@]5(C(=O)NS(=O)(=O)C6CC6)C[C@H]5/C=C\CCCCN(C)C(=O)[C@@H]4C3)cc(-c3nc(C(C)C)cs3)nc2c1C` [Simeprevir] was tested, and the “effect on inhibition of HCV infection” value was “slight antagonism”.
